Where a name gives a salt, the structure may show the parent alone.
Target: T1, NK1 receptor (Oryctolagus cuniculus, UniProt G1SEI7)
T1 construct: The left and right branches of the pulmonary artery are isolated from the rest of the lung tissue; from tissue; host or cells: pulmonary artery ring segments with intact endothelium, male New Zealand white rabbit (Oryctolagus cuniculus)
Experiment: Rabbit Pulmonary Artery: NK1 in vitro functional assay (Test C)
Format: cell-based, New Zealand white rabbit
Details: agonist ASMSP, read-out: pKB (-log molar KB) in Test C (converted)
Description: Rabbit Pulmonary Artery: NK1 in vitro functional assay (Test C)
Male New Zealand white rabbits are killed by lethal injection (Nembutal, 60 mg/kg into a cannulated ear vein). Heparin, 0.0025 ml/kg of a 1000 U/ml solution, is injected into the ear vein prior to nembutal in order to decrease blood coagulation. The left and right branches of the pulmonary artery are isolated from the rest of the lung tissue and cut in half to provide four ring segments from each animal. […] Changes in tension are measured on a Grass polygraph via Grass FT-03 force transducers. […]
Potencies of the compounds are determined by calculating the apparent dissociation constants (KB) for each concentration tested using the standard equation: […]
where dose ratio=antilog[(agonist-log molar EC50 without compound)-(agonist-log molar EC50 with compound)]. The KB values are converted to the negative logarithms and expressed as -log molar KB (i.e. pKB). […] The EC50 values are converted to negative logarithms and expressed as -log molar EC50. Maximum relaxation responses to ASMSP are determined by expressing the maximum response to the agonist as a percentage of the relaxation caused by papaverine.

T1 sequence (G1SEI7 1-407): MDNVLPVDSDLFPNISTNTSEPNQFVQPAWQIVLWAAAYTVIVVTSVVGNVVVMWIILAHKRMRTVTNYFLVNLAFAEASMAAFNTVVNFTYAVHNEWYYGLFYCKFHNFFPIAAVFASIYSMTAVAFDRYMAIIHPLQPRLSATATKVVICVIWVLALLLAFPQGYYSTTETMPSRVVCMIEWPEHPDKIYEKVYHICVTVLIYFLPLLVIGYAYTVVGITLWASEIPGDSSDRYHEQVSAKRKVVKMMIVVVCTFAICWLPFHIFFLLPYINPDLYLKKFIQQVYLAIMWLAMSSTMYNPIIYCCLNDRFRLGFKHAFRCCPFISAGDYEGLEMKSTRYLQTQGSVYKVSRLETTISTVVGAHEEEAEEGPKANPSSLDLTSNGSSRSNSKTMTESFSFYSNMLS

**Q.** `COc1ccccc1CC(=O)N(C)CC(c1ccc(Cl)c(Cl)c1)N1CCC(O)(c2ccccc2)CC1` (stereo not shown) [Example 2, N-[2-(3,4-Dichlorophenyl)-2-(4-hydroxy-4-phenylpiperidino)ethyl]-N-methyl-2-methoxyphenylacetamide hydrochloride salt] was tested. Which Kb did it give?
**A.** The Kb was 631 nM.

Source: patent US5710169A, “Therapeutic heterocycles” (Zeneca Limited, priority 1994, dated 1998)
